Measurements: patent US11420970B1 (NOVARTIS AG, priority 2019, dated 2022)
Read-outs that look alike come from different tables or passages of the source.

Experiments:
[1] = target: NSD2 [1-1365] (Homo sapiens (Human), UniProt O96028); experiment: LC-MS/MS-based NSD2 enzymatic assay (SAH production); format: biochemical
Procedure, shortened: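 SAH formed was measured by LC-MS/MS using d4-SAH as internal standard and an SAH calibration curve. Compounds were preincubated 20 min with NSD2 [1-1365] and SAM; mouse-liver nucleosome then started a 90 min room-temperature reaction (8 nM enzyme, 1 μM SAM, 400 nM nucleosome final, pH 8.0), stopped with TFA.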

[2] = tested on: cellular H3K36me2 level in thyroid carcinoma cell line CGTH-W-1 (NSD2 E1099K); experiment: H3K36me2 cellular ELISA assay in CGTH-W-1 line; format: cell-based; details: Homo sapiens, read-out: H3K36me2 ELISA in CGTH-W-1
Method: H3K36Me2 Cellular ELISA Assay in CGTH-W-1 Line
An ELISA (enzyme-linked immunosorbent assay) based assay was used to test the ability of candidate compound to reduce cellular H3K36me2 level in thyroid carcinoma cell line CGTH-W-1, carrying NSD2 E1099K gain of function mutation. CGTH-W-1 (DSMZ) cells are maintained in RPM11640 media with 10% FBS and 50 U/ml Penicillin-Streptomycin.
Cells were treated with tested compounds at the desired concentration for 72 hours.
Histone bound plates were washed and blocked with 5% BSA. […] The abundance of H3K36me2 and total H3 was measured by Chemiluminesce on a plate reader. Cell viability was monitored on a parallel seeded plate with CellTiter-Glo reagent (Promega #G7573).

[3] = tested on: cellular H3K36me2 level in multiple myeloma cell line KMS11 (t(4;14)+); experiment: H3K36me2 cellular ELISA assay in KMS11-Par line; format: cell-based; details: Homo sapiens, KMS-11, ELISA, read-out: H3K36me2 ELISA in KMS11-Par
Procedure, shortened: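 After 72 h compound exposure, HCl-extracted histones from KMS11 (t(4;14)+) cells were probed by ELISA for H3K36me2 against total H3 with a chemiluminescence read-out. Cells were plated at 1,250/well in Opti-MEM plus B-27 and N2 the day before. A parallel CellTiter-Glo plate tracked viability.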

[4] = NSD2 biochemical activity, class symbols, read-out: NSD2 IC50
[5] = KMS11-Par line (t(4;14)+), 72 hours treatment

NSD2 [1-1365], sequence (O96028 whole entry): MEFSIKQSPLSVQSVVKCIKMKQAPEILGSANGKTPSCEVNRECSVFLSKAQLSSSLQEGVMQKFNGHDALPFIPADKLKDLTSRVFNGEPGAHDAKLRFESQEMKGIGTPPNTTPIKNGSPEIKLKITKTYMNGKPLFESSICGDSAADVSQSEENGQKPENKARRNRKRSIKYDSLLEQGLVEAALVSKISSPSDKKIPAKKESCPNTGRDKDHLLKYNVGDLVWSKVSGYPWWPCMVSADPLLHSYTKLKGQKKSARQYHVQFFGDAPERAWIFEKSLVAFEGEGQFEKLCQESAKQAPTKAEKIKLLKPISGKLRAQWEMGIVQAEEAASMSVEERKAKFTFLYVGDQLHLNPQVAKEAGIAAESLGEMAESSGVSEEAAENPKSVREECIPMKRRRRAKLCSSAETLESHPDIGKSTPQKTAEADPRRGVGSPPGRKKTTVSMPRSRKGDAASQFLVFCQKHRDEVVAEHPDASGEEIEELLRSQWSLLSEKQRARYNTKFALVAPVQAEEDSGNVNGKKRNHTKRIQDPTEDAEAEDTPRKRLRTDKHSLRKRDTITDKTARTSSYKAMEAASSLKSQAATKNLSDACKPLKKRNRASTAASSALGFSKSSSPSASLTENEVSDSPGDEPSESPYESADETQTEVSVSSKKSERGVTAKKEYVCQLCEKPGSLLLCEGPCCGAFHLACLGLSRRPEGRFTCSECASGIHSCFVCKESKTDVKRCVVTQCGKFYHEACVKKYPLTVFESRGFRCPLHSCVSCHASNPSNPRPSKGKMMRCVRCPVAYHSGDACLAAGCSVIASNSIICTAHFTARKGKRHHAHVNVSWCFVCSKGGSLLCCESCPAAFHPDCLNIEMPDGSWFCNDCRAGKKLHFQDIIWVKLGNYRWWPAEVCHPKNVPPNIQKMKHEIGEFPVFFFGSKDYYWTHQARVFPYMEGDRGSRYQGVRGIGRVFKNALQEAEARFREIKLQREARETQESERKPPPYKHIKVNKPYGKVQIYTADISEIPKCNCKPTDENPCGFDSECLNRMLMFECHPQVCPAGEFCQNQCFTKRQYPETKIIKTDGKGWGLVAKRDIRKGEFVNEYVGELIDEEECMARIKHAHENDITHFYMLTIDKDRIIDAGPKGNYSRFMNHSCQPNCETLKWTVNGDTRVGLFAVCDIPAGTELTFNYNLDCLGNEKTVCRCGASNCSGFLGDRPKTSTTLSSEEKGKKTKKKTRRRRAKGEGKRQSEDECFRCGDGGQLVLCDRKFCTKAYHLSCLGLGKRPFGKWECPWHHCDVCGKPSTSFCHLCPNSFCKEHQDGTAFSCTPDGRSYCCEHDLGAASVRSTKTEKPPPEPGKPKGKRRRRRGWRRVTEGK

| SMILES | IC50 ([1]; read-out: NSD2 IC50) | IC50 ([2]; CGTH-W-1, 72 h) | further results |
| --- | --- | --- | --- |
| CCc1nccc([C@@]2(N)CCCN(c3cnc(-c4ccc(F)c(F)c4)cc3Cn3cnc4c(N)ncnc43)C2)n1 [Example 251, (R)-9-((5-(3-amino-3-(2-ethylpyrimidin-4-yl)piperidin-1-yl)-2-(3,4-difluorophenyl)pyridin-4-yl)methyl)-9H-purin-6-amine] | 0.01 to 1 µM | 0.44 µM | IC50 ([3]; KMS11-Par line, 72 hours): 1.52 µM |
| COc1cc(F)nc([C@@]2(N)CCCN(c3cnc(-c4ccc(F)c(F)c4)cc3Cn3cnc4c(N)ncnc43)C2)c1 [Example 235, (R)-9-((5-(3-amino-3-(6-fluoro-4-methoxypyridin-2-yl)piperidin-1-yl)-2-(3,4-difluorophenyl)pyridin-4-yl)methyl)-9H-purin-6-amine] | 0.001 to 0.01 µM | 0.705 µM | IC50 ([3]; KMS11-Par line, 72 hours): 0.97 µM |
| CC[C@@H](C)C(=O)[C@@]1(N)CCCN(c2cnc(-c3ccc(F)c(F)c3)cc2Cn2cnc3c(N)ncnc32)C1 [Example 102, (R)-1-((R)-3-amino-1-(4-((6-amino-9H-purin-9-yl)methyl)-6-(3,4-difluorophenyl)pyridin-3-yl)piperidin-3-yl)-2-methylbutan-1-one] | – | 0.06 µM | IC50 [1, 4]: 0.01 to 1 µM; IC50 [3, 5]: 0.252 µM |
| CC(C)(C)C(=O)[C@@]1(N)CCCN(c2cnc(-c3ccc(F)c(F)c3)cc2Cn2cnc3c(N)ncnc32)C1 [Example 109, (R)-1-(3-amino-1-(4-((6-amino-9H-purin-9-yl)methyl)-6-(3,4-difluorophenyl)pyridin-3-yl)piperidin-3-yl)-2,2-dimethylpropan-1-one] | – | 2.09 µM | IC50 [1, 4]: 0.01 to 1 µM; IC50 [3, 5]: 2.73 µM |
| Nc1ncnc2c1ncn2Cc1cc(-c2ccc(F)c(F)c2)ncc1N1CCC[C@](N)(c2ccc[nH]c2=O)C1 [Example 272, (S)-3-(3-amino-1-(4-((6-amino-9H-purin-9-yl)methyl)-6-(3,4-difluorophenyl)pyridin-3-yl)piperidin-3-yl)pyridin-2(1H)-one] | 0.001 to 0.01 µM | 1.75 µM | IC50 ([3]; KMS11-Par line, 72 hours): 10.5 µM |
| Cn1ncc([C@@]2(N)CCCN(c3cnc(-c4ccc(F)c(F)c4)cc3Cn3cnc4c(N)ncnc43)C2)n1 [Example 283, (R)-9-((5-(3-amino-3-(2-methyl-2H-1,2,3-triazol-4-yl)piperidin-1-yl)-2-(3,4-difluorophenyl)pyridin-4-yl)methyl)-9H-purin-6-amine] | – | 0.11 µM | IC50 ([1]; NSD2 IC50): 0.001 to 0.01 µM; IC50 ([3]; KMS11-Par line, 72 hours): 1.02 µM |
| CNC(=O)[C@@]1(N)CCCN(c2cnc(-c3cccc(F)c3)cc2Cn2cnc3c(N)ncnc32)C1 [Example 78, (R)-3-amino-1-(4-((6-amino-9H-purin-9-yl)methyl)-6-(3-fluorophenyl)pyridin-3-yl)-N-methylpiperidine-3-carboxamide] | – | 0.012 µM | IC50 [1, 4]: 0.001 to 0.01 µM; IC50 [3, 5]: 0.078 µM |
| CC(C)[C@H](O)[C@@]1(N)CCCN(c2cnc(-c3ccc(F)c(F)c3)cc2Cn2cnc3c(N)ncnc32)C1 [Example 98, (S)-1-((R)-3-amino-1-(4-((6-amino-9H-purin-9-yl)methyl)-6-(3,4-difluorophenyl)pyridin-3-yl)piperidin-3-yl)-2-methylpropan-1-ol] | – | 1.5 µM | IC50 [1, 4]: 0.01 to 1 µM; IC50 [3, 5]: 6.26 µM |
| Nc1ncnc2c1ncn2Cc1cc(-c2ccc(OC(F)F)cc2)ncc1N1CCCC(N)(c2cccc(Cl)n2)C1 (stereo not drawn) [Example 184, 9-((5-(3-amino-3-(6-chloropyridin-2-yl)piperidin-1-yl)-2-(4-(difluoromethoxy)phenyl)pyridin-4-yl)methyl)-9H-purin-6-amine] | 0.01 to 1 µM | 0.592 µM | – |
| Nc1ncnc2c1ncn2Cc1cc(-c2ccc(F)c(F)c2)ncc1N1CCC[C@](N)(c2ccc(OC(F)F)cn2)C1 [Example 209, (R)-9-((5-(3-amino-3-(5-(difluoromethoxy)pyridin-2-yl)piperidin-1-yl)-2-(3,4-difluorophenyl)pyridin-4-yl)methyl)-9H-purin-6-amine] | 0.001 to 0.01 µM | – | IC50 ([2]; CGTH-W-1 line, ELISA, 72 hours): 0.324 µM |
| COc1ccc(-c2cc(Cn3cnc4c(N)ncnc43)c(N3C[C@H](N)C[C@@H](CF)C3)cn2)cc1F [Example 306, 9-((5-((3R,5R)-3-amino-5-(fluoromethyl)piperidin-1-yl)-2-(3-fluoro-4-methoxyphenyl)pyridin-4-yl)methyl)-9H-purin-6-amine] | 0.01 to 1 µM | 6.46 µM | – |
| NC(=O)c1cccc(C2(N)CCCN(c3cnc(-c4ccc(F)c(F)c4)cc3Cn3cnc4c(N)ncnc43)C2)n1 (stereo not drawn) [Example 195, 6-(3-amino-1-(4-((6-amino-9H-purin-9-yl)methyl)-6-(3,4-difluorophenyl)pyridin-3-yl)piperidin-3-yl)picolinamide] | 0.01 to 1 µM | 4.92 µM | – |
| Nc1ncnc2c1ncn2Cc1cc(-c2ccc(F)c(F)c2)ncc1N1CCCC(N)(c2ccncn2)C1 (stereo not drawn) [Example 255, 9-((5-(3-amino-3-(pyrimidin-4-yl)piperidin-1-yl)-2-(3,4-difluorophenyl)pyridin-4-yl)methyl)-9H-purin-6-amine] | 0.01 to 1 µM | 0.232 µM | – |
| N#Cc1cccc(C2(N)CCCN(c3cnc(-c4ccc(F)c(F)c4)cc3Cn3cnc4c(N)ncnc43)C2)n1 (stereo not drawn) [Example 208, 6-(3-amino-1-(4-((6-amino-9H-purin-9-yl)methyl)-6-(3,4-difluorophenyl)pyridin-3-yl)piperidin-3-yl)picolinonitrile] | 0.01 to 1 µM | 2.78 µM | – |
| Nc1ncnc2c1ncn2Cc1cc(-c2ccc(F)cc2)ncc1N1CCC[C@](N)(c2ccc(F)c(C(F)F)n2)C1 [Example 218, (R)-9-((5-(3-amino-3-(6-(difluoromethyl)-5-fluoropyridin-2-yl)piperidin-1-yl)-2-(4-fluorophenyl)pyridin-4-yl)methyl)-9H-purin-6-amine] | 0.01 to 1 µM | 0.101 µM | – |
| Nc1ncnc2c1ncn2Cc1cc(-c2ccc(F)c(F)c2)ncc1N1CCC[C@](N)(c2cccc(O)n2)C1 [Example 217, (R)-6-(3-amino-1-(4-((6-amino-9H-purin-9-yl)methyl)-6-(3,4-difluorophenyl)pyridin-3-yl)piperidin-3-yl)pyridin-2-ol] | 0.001 to 0.01 µM | 2.24 µM | – |
| Nc1ncnc2c1ncn2Cc1cc(-c2ccc(F)c(F)c2)ncc1N1CCCC(N)(c2cccnn2)C1 (stereo not drawn) [Example 253, 9-((5-(3-amino-3-(pyridazin-3-yl)piperidin-1-yl)-2-(3,4-difluorophenyl)pyridin-4-yl)methyl)-9H-purin-6-amine] | 0.01 to 1 µM | 0.357 µM | – |
| Nc1ncnc2c1ncn2Cc1cc(-c2ccc(OC(F)F)c(F)c2)ncc1N1CCCC(N)(c2cccc(Cl)n2)C1 (stereo not drawn) [Example 228, 9-((5-(3-amino-3-(6-chloropyridin-2-yl)piperidin-1-yl)-2-(4-(difluoromethoxy)-3-fluorophenyl)pyridin-4-yl)methyl)-9H-purin-6-amine] | 0.01 to 1 µM | 0.611 µM | – |
| Cc1cncc([C@@]2(N)CCCN(c3cnc(-c4ccc(F)c(F)c4)cc3Cn3cnc4c(N)ncnc43)C2)n1 [Example 258, (R)-9-((5-(3-amino-3-(6-methylpyrazin-2-yl)piperidin-1-yl)-2-(3,4-difluorophenyl)pyridin-4-yl)methyl)-9H-purin-6-amine] | 0.01 to 1 µM | 0.434 µM | – |
| Cn1cc(C2(N)CCCN(c3cnc(-c4ccc(F)c(F)c4)cc3Cn3cnc4c(N)ncnc43)C2)nn1 (stereo not drawn) [Example 282, 9-((5-(3-amino-3-(1-methyl-1H-1,2,3-triazol-4-yl)piperidin-1-yl)-2-(3,4-difluorophenyl)pyridin-4-yl)methyl)-9H-purin-6-amine] | 0.01 to 1 µM | 1.53 µM | – |
